Earlier results in patent US8541386B2, “Cannabinoid 2 (CB2) receptor gene promoter and unique RNA transcripts in B cells and methods of use” (University of South Florida, priority 2009, dated 2013).

System: IL-4/anti-CD40 stimulated B cells
Conditions: co-treatment of IL-4/anti-CD40 stimulated B cells; earlier work of the inventors' lab

CCCCCCC(C)(C)c1ccc([C@@H]2C[C@H](O)CC[C@H]2CCCO)c(O)c1 [CP55940]
immunoglobulin class switching to IgE: increased immunoglobulin class switching to IgE
